Literature values in patent publication US20220054380A1, “CANN[…] ESTERS FOR COSMETIC OR EDIBLE COMPOSITIONS” (EPM (IP), Inc., priority 2018, published 2022).

Legend:
rats [1] = conditions: compared with CBDA, 5-HT1A receptor-dependent
rats [2] = conditions: compared with CBDA, 5-HT1A receptor-dependent; remark: listed apart in the source
rats [3] = conditions: oral ingestion, low dose (1 mg/kg), two rat models

Question: What does the source list for `C=C(C)C1CCC(C)=C[C@H]1c1c(O)cc(CCCCC)c(C(=O)OC)c1O` (stereo partly drawn) [HU-580, Cannabidiolic Acid Methyl Ester]?
Answer: potency at suppressing signs of acute and anticipatory nausea (rats [1]): greater potency than CBDA; potency at suppressing signs of stress-induced anxiety (rats [2]): greater potency than CBDA; anti-depressant effect (rats [3]): potent anti-depressant effect
